SMILES | melting point
CCNC(=O)Nc1ccc2ncc(Nc3ccc4c(c3)OC(F)(F)O4)nc2n1 [Compound 42, 1-[3-(2,2-Difluoro-benzo[1,3]dioxol-5-ylamino)-pyrido[2,3-b]pyrazin-6-yl]-3-ethyl-urea] | 238 to 241 °C
CCNC(=O)Nc1ccc2ncc(-c3ccc(NC(=O)OCCOCCOCCOC)c(OC)c3)nc2n1 [Compound 44, {4-[6-(3-Ethyl-ureido)-pyrido[2,3-b]pyrazin-3-yl]-2-methoxy-phenyl}-carbamic acid 2-[2-(2-methoxy-ethoxy)-ethoxy]-ethyl ester] | > 330 °C
CCNC(=O)Nc1ccc2ncc(Nc3ccc(C(=O)N4CCOCC4)cc3)nc2n1 [Compound 48, 1-Ethyl-3-{3-[4-(morpholine-4-carbonyl)-phenylamino]-pyrido[2,3-b]-pyrazin-6-yl}-urea] | 276 to 279 °C
CC(C)Oc1cccc(Nc2cnc3ccc(NC(=O)NC4CC4)nc3n2)c1 [Compound 49, 1-Cyclopropyl-3-[3-(3-isopropoxy-phenylamino)-pyrido[2,3-b]pyrazin-6-yl]-urea] | 134 °C
CCNC(=O)Nc1ccc2ncc(-c3cccnc3OC(C)C)nc2n1 [Compound 51, 1-Ethyl-3-[3-(2-isopropoxy-pyridin-3-yl)-pyrido[2,3-b]pyrazin-6-yl]-urea] | 231 to 232 °C
CCNC(=O)Nc1ccc2ncc(-c3ccn[nH]3)nc2n1 [Compound 52, 1-Ethyl-3-[3-(2H-pyrazol-3-yl)-pyrido[2,3-b]pyrazin-6-yl]-urea] | 218 to 220 °C
CCNC(=O)Nc1ccc2ncc(-c3cncn3C)nc2n1 [Compound 53, 1-Ethyl-3-[3-(3-methyl-3H-imidazol-4-yl)-pyrido[2,3-b]pyrazin-6-yl]-urea] | 257 to 259 °C
CCNC(=O)Nc1ccc2ncc(-c3ccccc3OCc3ccccc3)nc2n1 [Compound 57, 1-[3-(2-Benzyloxy-phenyl)-pyrido[2,3-b]pyrazin-6-yl]-3-ethyl-urea] | 181 to 183 °C
CCNC(=O)Nc1ccc2ncc(-c3cnn(Cc4ccccc4)c3)nc2n1 [Compound 58, 1-[3-(1-Benzyl-1H-pyrazol-4-yl)-pyrido[2,3-b]pyrazin-6-yl]-3-ethyl-urea] | 258 to 261 °C
CCNC(=O)Nc1ccc2ncc(-c3cnn(CC(C)C)c3)nc2n1 [Compound 59, 1-Ethyl-3-[3-(1-isobutyl-1H-pyrazol-4-yl)-pyrido[2,3-b]pyrazin-6-yl]-urea] | 189 to 191 °C
CCNC(=O)Nc1ccc2ncc(-c3cnn(CCN4CCOCC4)c3)nc2n1 [Compound 60, 1-Ethyl-3-{3-[1-(2-morpholin-4-yl-ethyl)-1H-pyrazol-4-yl]-pyrido[2,3-b]pyrazin-6-yl}-urea] | 223 to 226 °C
CCNC(=O)Nc1ccc2ncc(-c3ccccc3OCC(C)C)nc2n1 [Compound 62, 1-Ethyl-3-[3-(2-isobutoxy-phenyl)-pyrido[2,3-b]pyrazin-6-yl]-urea] | 179 to 181 °C
CCNC(=O)Nc1ccc2ncc(-c3ccc(OCCCN4CCOCC4)c(OC)c3)nc2n1 [Compound 63, 1-Ethyl-3-{3-[3-methoxy-4-(3-morpholin-4-yl-propoxy)-phenyl]-pyrido[2,3-b]pyrazin-6-yl}-urea] | 225 to 227 °C
CCNC(=O)Nc1ccc2ncc(Nc3ccccc3)nc2n1 [Compound 64, 1-Ethyl-3-(3-phenylamino-pyrido-[2,3-b]pyrazin-6-yl)-urea] | 229 to 231 °C
CC(=O)NCC(=O)Nc1ccc2ncc(Nc3ccc(C)cc3)nc2n1 [Compound 66, 2-Acetylamino-N-(3-p-tolylamino-pyrido [2,3-b]pyrazin-6-yl)-acetamide] | 276 to 279 °C
CCNC(=O)Nc1ccc2ncc(-c3cccc(Br)c3OC(C)C)nc2n1 [Compound 67, 1-[3-(3-Bromo-2-isopropoxy-phenyl)-pyrido[2,3-b]pyrazin-6-yl]-3-ethyl-urea] | 200 to 202 °C
CCNC(=O)Nc1ccc2ncc(-c3cccc(OC)c3OC)nc2n1 [Compound 68, 1-[3-(2,3-Dimethoxy-phenyl)-pyrido[2,3-b]pyrazin-6-yl]-3-ethyl-urea] | 182 to 185 °C
CCNC(=O)Nc1ccc2ncc(-c3cc4ccccc4[nH]3)nc2n1 [Compound 70, 1-Ethyl-3-[3-(1H-indol-2-yl)-pyrido[2,3-b]pyrazin-6-yl]-urea] | > 300 °C
CCNC(=O)Nc1ccc2ncc(-c3cccc4c3oc3ccccc34)nc2n1 [Compound 71, 1-(3-Dibenzofuran-4-yl-pyrido[2,3-b]pyrazin-6-yl)-3-ethyl-urea] | > 300 °C
CCNC(=O)Nc1ccc2ncc(-c3ccc(NC(=O)CCC(=O)OC)cc3)nc2n1 [Compound 76, N-{4-[6-(3-Ethyl-ureido)-pyrido[2,3-b]pyrazin-3-yl]-phenyl}-succinamic acid methyl ester] | 253 °C
CCNC(=O)Nc1ccc2ncc(-c3cc(C(C)=O)ccc3F)nc2n1 [Compound 79, 1-[3-(5-Acetyl-2-fluoro-phenyl)-pyrido[2,3-b]pyrazin-6-yl]-3-ethyl-urea] | 238.1 to 241.8 °C
CCNC(=O)Nc1ccc2ncc(-c3cc(C)c(OC)c(C)c3)nc2n1 [Compound 80, 1-Ethyl-3-[3-(4-methoxy-3,5-dimethyl-phenyl)-pyrido[2,3-b]pyrazin-6-yl]-urea] | 255.3 to 258.2 °C
CCNC(=O)Nc1ccc2ncc(-c3cc(F)c(F)c(F)c3)nc2n1 [Compound 81, 1-Ethyl-3-[3-(3,4,5-trifluoro-phenyl)-pyrido[2,3-b]pyrazin-6-yl]-urea] | 305.4 to 307.2 °C
CCNC(=O)Nc1ccc2ncc(-c3ccc(-c4ccccc4)cc3F)nc2n1 [Compound 84, 1-Ethyl-3-[3-(3-fluoro-biphenyl-4-yl)-pyrido[2,3-b]pyrazin-6-yl]-urea] | 263.9 to 265.6 °C
CCNC(=O)Nc1ccc2ncc(Nc3ccc(O)c(C)c3)nc2n1 [Compound 86, 1-Ethyl-3-[3-(4-hydroxy-3-methyl-phenylamino)-pyrido[2,3-b]pyrazin-6-yl]-urea] | 277 to 280 °C
CCNC(=O)Nc1ccc2ncc(Nc3ccc(C(=O)OC)c(OC)c3)nc2n1 [Compound 87, 4-[6-(3-Ethyl-ureido)-pyrido[2,3-b]pyrazin-3-ylamino]-2-methoxy-benzoic acid methyl ester] | 256 to 259 °C
CCNC(=O)Nc1ccc2ncc(-c3cc(Cl)cc(C)c3F)nc2n1 [Compound 96, 1-[3-(5-Chloro-2-fluoro-3-methyl-phenyl)-pyrido[2,3-b]pyrazin-6-yl]-3-ethyl-urea] | 258 to 259 °C
CCNC(=O)Nc1ccc2ncc(-c3ccccc3C(F)(F)F)nc2n1 [Compound 97, 1-Ethyl-3-[3-(2-trifluoromethyl-phenyl)-pyrido[2,3-b]pyrazin-6-yl]-urea] | 240 to 243 °C

Results, then the compound that gave them:

melting point | SMILES
246 to 249 °C | CCNC(=O)Nc1ccc2ncc(-c3ccc(OS(C)(=O)=O)c(OC)c3)nc2n1 [Compound 43, Methanesulfonic acid 4-[6-(3-ethyl-ureido)-pyrido[2,3-b]pyrazin-3-yl]-2-methoxy-phenyl ester]
337 to 339 °C | CCNC(=O)Nc1ccc2ncc(-c3ccc(O)c(Br)c3)nc2n1 [Compound 47, 1-[3-(3-Bromo-4-hydroxy-phenyl)-pyrido[2,3-b]pyrazin-6-yl]-3-ethyl-urea]
270 to 274 °C | CCNC(=O)Nc1ccc2ncc(-c3cnc4[nH]ccc4c3)nc2n1 [Compound 61, 1-Ethyl-3-[3-(1H-pyrrolo[2,3-b]pyridin-5-yl)-pyrido[2,3-b]pyrazin-6-yl]-urea]
> 300 °C | CCNC(=O)Nc1ccc2ncc(-c3cnc(N)nc3)nc2n1 [Compound 72, 1-[3-(2-Amino-pyrimidin-5-yl)-pyrido[2,3-b]pyrazin-6-yl]-3-ethyl-urea]
> 300 °C | CCNC(=O)Nc1ccc2ncc(-c3ccc(NC(C)=O)c(OC)c3)nc2n1 [Compound 77, N-{4-[6-(3-Ethyl-ureido)-pyrido[2,3-b]pyrazin-3-yl]-2-methoxy-phenyl}-acetamide]
> 350 °C | CCNC(=O)Nc1ccc2ncc(-c3ccc(N)c([N+](=O)[O-])c3)nc2n1 [Compound 78, 1-[3-(4-Amino-3-nitro-phenyl)-pyrido[2,3-b]pyrazin-6-yl]-3-ethyl-urea]
255.3 to 257.9 °C | CCNC(=O)Nc1ccc2ncc(-c3cc(C)cc(C)c3)nc2n1 [Compound 82, 1-[3-(3,5-Dimethyl-phenyl)-pyrido[2,3-b]pyrazin-6-yl]-3-ethyl-urea]
247.8 to 252.4 °C | CCNC(=O)Nc1ccc2ncc(-c3ccc(C)c(F)c3)nc2n1 [Compound 83, 1-Ethyl-3-[3-(3-fluoro-4-methyl-phenyl)-pyrido[2,3-b]pyrazin-6-yl]-urea]
253.3 to 256.2 °C | CCNC(=O)Nc1ccc2ncc(-c3ccc(C)c([N+](=O)[O-])c3)nc2n1 [Compound 85, 1-Ethyl-3-[3-(4-methyl-3-nitro-phenyl)-pyrido[2,3-b]pyrazin-6-yl]-urea]
298 to 305 °C | CCNC(=O)Nc1ccc2ncc(-c3cc(Cl)cc(Cl)c3)nc2n1 [Compound 90, 1-[3-(3,5-Dichloro-phenyl)-pyrido[2,3-b]pyrazin-6-yl]-3-ethyl-urea]
254 to 257 °C | CCNC(=O)Nc1ccc2ncc(-c3cc(Cl)ccc3OC)nc2n1 [Compound 91, 1-[3-(5-Chloro-2-methoxy-phenyl)-pyrido[2,3-b]pyrazin-6-yl]-3-ethyl-urea]
264 to 269 °C | CCNC(=O)Nc1ccc2ncc(-c3cc(Cl)ccc3Cl)nc2n1 [Compound 92, 1-[3-(2,5-Dichloro-phenyl)-pyrido[2,3-b]pyrazin-6-yl]-3-ethyl-urea]
253 to 258 °C | CCNC(=O)Nc1ccc2ncc(-c3cc(F)ccc3OC)nc2n1 [Compound 93, 1-Ethyl-3-[3-(5-fluoro-2-methoxy-phenyl)-pyrido[2,3-b]pyrazin-6-yl]-urea]
270 to 274 °C | CCNC(=O)Nc1ccc2ncc(-c3cc(C)cc(Br)c3)nc2n1 [Compound 94, 1-[3-(3-Bromo-5-methyl-phenyl)-pyrido[2,3-b]pyrazin-6-yl]-3-ethyl-urea]
259 to 262 °C | CCNC(=O)Nc1ccc2ncc(-c3ccc(F)c(F)c3)nc2n1 [Compound 95, 1-[3-(3,4-Difluoro-phenyl)-pyrido[2,3-b]pyrazin-6-yl]-3-ethyl-urea]

Source: patent US8536332B2, “Modulating signal transduction pathways with substituted pyridol [2,3-b] pyrazines” (Aeterna Zentaris GmbH, priority 2007, dated 2013)
